# “Also recorded” adds a separate entry of the source.
# Columns and labels:
# p140^prototrk = p140^prototrk (Rattus norvegicus, UniProt P35739); test: trk tyrosine phosphorylation in rtrk-3T3 cells, suramin treatment followed by NGF (in vivo and immune complex kinase assays); assay type: cell-based; conditions: suramin treated rtrk-3T3 cells, NGF (500 ng/ml) added for 10 min
# Protocol: Cells were treated with suramin (lanes 2 and 5) or with 500 ng/ml NGF for 10 min following suramin treatment.
# rtrk 3T3 cells were generated by CaPO4 mediated transfection of a rat trk cDNA into NIH-3T3 cells. […] PC12 cells or rtrk 3T3 cells (2×10^7) were labeled with ^32 P orthophosphate (1 mCi.ml in 4 ml) for 4 hr at 37° C. […] For c, rtrk 3T3 cells were treated with 1 mM suramin in Dulbecco's Modified Eagle Medium (DMEM) for 2 h or mock treated. Following extensive washing of the cells with DMEM, NGF was added for the time indicated. Cells were lysed and the lysates were immunoprecipitated with trk antibody. Immunoprecipitates were either subjected to immunoblot analysis with the phosphotyrosine (Ptyr) monoclonal antibody 4G10 (Lanes 1-3), or were analyzed in kinase assays. […] Similar amounts of trk protein were present in each lane.
# gp140trk = test: trk tyrosine phosphorylation in explanted embryonic dorsal root ganglia treated with NGF; assay type: cell-based, mouse; parameters: dose or concentration left out as unconfirmed
# From the text: FIGS. 4A-B show NGF-dependent tyrosine phosphorylation of gp140trk in the human neuroblastoma cell lines LA-N-5, SY5Y, and dorsal root ganglia from mouse embryos. FIG. 4A, gp140trk was immunoprecipitated from untreated (-) or NGF treated (+) LA-N-5 cells (K. H. Sonnenfeld and D. N. Ishii, J. Neurosci. Res. 8:375-391 (1982)), SY5Y cells (K. H. Sonnenfeld and D. N. Ishii, (1982)), NR18 cells (M. A. Bothwell et al., Cell 21:857-866 (1980)), or PC12 cells. Immunoprecipitates were probed with P-tyr antibodies. The differences in trk protein mobilities are due to differences in glycosylation. FIG. 4B, Tyrosine phosphorylation of gp140trk in DRGs from 13.5 day or 14.5 day embryonic mice. […] Tyrosine phosphorylated gp140trk from NGF-treated (+) PC12 cells or untreated (-) PC12 cells is shown for comparison. Samples were normalized for cell protein. Molecular weight markers in kDa are indicated.
# Cell lines were treated with 100 ng/ml NGF for 5 min and gp140trk immunoprecipitated as in FIG. 1. DRGs were prepared by dissection for 13.5 or 14.5 day mouse embryos. 100 DRG's were treated with NGF, washed, and subjected to Dounce homogenization in 1% NP40 lysis buffer. Lysates were immunoprecipitated with trk antibody and the trk proteins were analyzed by antiphosphotyrosine immunoblots. […]
# gp145^trkB = gp145^trkB tyrosine phosphorylation in trkB-expressing NIH 3T3 cells (pJM8 lines), immunoprecipitation and α-Ptyr Western; assay type: cell-based, rat; conditions: pJM8 trkB-expressing NIH 3T3 cells, 100 ng/ml factor, 5 min
# Protocol: A 4.8 kb cDNA encompassing the coding domain of rat trkB (Middlemas et al., (1991)) was cloned into the pMEX plasmid (pJM8) downstream of the MSV promoter. NIH 3T3 cells were cotransfected with the pJM8 plasmid and a plasmid containing the neomycin phosphotransferase gene (L. F. Parada et al., Nature 312:649-651 (1984)), and G418-resistant colonies were selected. PC12 cells (Greene and Tischler, 1976) were grown in DMEM with 10% horse serum and 5% fetal calf serum. NIH 3T3 cells and the derivative cells lines were maintained in DMEM medium containing 10% calf serum. All cells were maintained in a humidified incubator at 37° C. in 5% CO2.
# Approximately 10^7 cells were treated at 37° C. for 5 min with 100 ng/ml growth factors or at the concentrations and lengths of time noted in the text. NP-40 plate lysis and gp145^trkB immunoprecipitation with anti-serum 443 were performed as previously described (Kaplan et al., (1990), (1991)). The phosphotyrosine content was analyzed by Western transfer using monoclonal antibody 4G10 as previously described (Morrison et al., (1989)).
# The product of the trk proto-oncogene (gp140^proto-trk) is tyrosine phosphorylated in response to NGF in PC12 cells, NGF-responsive neuroblastoma cells, heterologous fibroblasts and Xenopus oocytes (Kaplan et al., (1991); A. R. Nebreda et al., Science 252:558-560 (1991); Klein et al., (1991)). Next it was examined whether NGF elicited tyrosine phosphorylation of gp145^trkB in trkB-expressing NIH 3T3 cells. Cell line pJM8-3 was treated with high concentrations of NGF (100 ng/ml) for 5 minutes. The cells were lysed, immunoprecipitated with anti-trkB antiserum 443, transferred to nitrocellulose filters and probed with anti-phosphotyrosine (α-Ptyr) antibodies. As a negative control, untransfected NIH-3T3 cells were treated in parallel, while PC12 cells were used as a positive control for NGF responsiveness (Kaplan et al., (1991)).
# BDNF and NT-3 are neurotrophic factors that display many functional and structural features that are reminiscent of NGF. The genes encoding BDNF and NT-3 have recently been cloned and used to express high levels of the biologically active factors in pure form (A. Rosenthal et al., Neuron 4:773 (1990)). It was tested whether these NGF-related neurotrophic factors would stimulate phosphorylation of the trkB glycoprotein by exposing the pJM-8 cell lines to 100 ng/ml of NGF, BDNF, or NT-3 (~4 nM) for 5 minutes. The cells were then lysed and the lysates incubated with a trkB anti-peptide antiserum (443) with or without excess peptide. After transfer to nitrocellulose filters, the trkB proteins were probed with an anti-phosphotyrosine (α-ptyr) monoclonal antibody (FIG. 10) (Kaplan et al. (1991)). […] Thus, both neurotrophic factors NT-3 and BDNF can elicit tyrosine phosphorylation of gp145^trkB in a manner similar to that observed for NGF stimulation of the trk receptor. Similar results have been obtained with NT-3 and BDNF in Rat2 cells expressing trkB.
# Having detected gp145^trkB phosphorylation in response to BDNF and NT-3, it was next determined whether unrelated polypeptide growth factors were capable of eliciting a similar response. Platelet-derived growth factor (PDGF; 100 ng/ml), epidermal growth factor (EGF; 100 ng/ml), insulin (100 ng/ml), and basic fibroblast growth factor (bFGF; 100 ng/ml), were added independently to exponentially growing cultures of pJM8-3 cells.
# The previous studies were done in the presence of high concentrations of neurotrophic factors. Dose response experiments were next performed to determine the range of concentrations at which phosphorylation of the trkB receptor was stimulated by NT-3 or BDNF. Cells were incubated with quantities of NT-3 or BDNF ranging from 0.1 ng/ml to 250 ng/ml and treated as described in FIG. 12. […]
# Sequence of p140^prototrk (P35739 33-799): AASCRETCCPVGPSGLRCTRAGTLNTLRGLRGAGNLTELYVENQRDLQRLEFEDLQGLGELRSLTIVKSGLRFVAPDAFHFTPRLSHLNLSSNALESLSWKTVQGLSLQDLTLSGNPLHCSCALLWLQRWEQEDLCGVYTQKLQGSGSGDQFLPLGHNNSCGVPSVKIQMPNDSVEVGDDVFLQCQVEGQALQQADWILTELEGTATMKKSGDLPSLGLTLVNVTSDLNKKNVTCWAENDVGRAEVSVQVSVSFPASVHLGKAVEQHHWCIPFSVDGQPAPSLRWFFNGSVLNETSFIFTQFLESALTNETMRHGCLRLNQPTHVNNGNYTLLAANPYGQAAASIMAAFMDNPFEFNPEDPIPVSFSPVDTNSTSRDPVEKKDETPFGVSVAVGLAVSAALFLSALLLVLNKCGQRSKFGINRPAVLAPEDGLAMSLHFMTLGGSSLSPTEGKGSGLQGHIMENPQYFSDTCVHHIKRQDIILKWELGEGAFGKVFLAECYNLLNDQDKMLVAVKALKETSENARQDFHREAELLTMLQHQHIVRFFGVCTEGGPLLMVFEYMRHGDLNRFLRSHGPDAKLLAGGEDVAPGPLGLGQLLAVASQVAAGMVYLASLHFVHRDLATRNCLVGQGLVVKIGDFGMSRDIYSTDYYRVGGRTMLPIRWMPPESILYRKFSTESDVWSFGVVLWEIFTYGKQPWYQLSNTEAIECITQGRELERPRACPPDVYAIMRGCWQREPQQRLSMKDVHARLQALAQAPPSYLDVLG
substance,measurement,setting,value
"NGF: neurotrophic polypeptide factor, nerve growth factor; ligand of trk proto-oncogene receptor",stimulation of tyrosine phosphorylation of gp140^prototrk in vivo and in vitro,p140^prototrk,at least 10 fold
same,phosphorylation of trk protein in 13.5 day DRG,gp140trk; E13.5 mouse embryo DRG,not in two independent preparations
same,phosphorylation of trk protein in 14.5 day DRG,gp140trk; E14.5 mouse embryo DRG,detectable
same,tyrosine phosphorylation of gp145^trkB,gp145^trkB,no increase in phosphorylation; also recorded: no detectable effect
